From patent publication US9102678B2, “Compounds and methods for inhibiting mitotic progression” (Millennium Pharmaceuticals, Inc., priority 2004, dated 2015)

target: T1, recombinant murine Aurora A enzyme (Mus musculus, UniProt P97477); assay: Aurora A DELFIA Kinase Assay; type: biochemical; conditions: mouse Aurora A, 250 μM ATP; threshold less than or equal to 100 nM; read-out: IC50
T1 construct: hexahistidine (His6) (N); made in house; host or cells: insect cells, baculovirus (Bac-to-Bac, Invitrogen)
T1 sequence (P97477 whole entry): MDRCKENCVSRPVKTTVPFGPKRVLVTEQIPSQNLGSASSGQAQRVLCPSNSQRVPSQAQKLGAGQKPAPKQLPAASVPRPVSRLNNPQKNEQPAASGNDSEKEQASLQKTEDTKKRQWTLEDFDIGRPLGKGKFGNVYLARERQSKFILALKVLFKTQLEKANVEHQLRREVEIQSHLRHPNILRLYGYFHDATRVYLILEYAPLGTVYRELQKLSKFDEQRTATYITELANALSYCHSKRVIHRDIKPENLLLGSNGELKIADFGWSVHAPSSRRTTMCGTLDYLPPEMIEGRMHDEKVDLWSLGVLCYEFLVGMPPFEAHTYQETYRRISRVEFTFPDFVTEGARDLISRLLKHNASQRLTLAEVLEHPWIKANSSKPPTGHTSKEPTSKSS

IC50, ≤ 100 nM:
CNC(=O)C1(N)CCN(C(=O)c2ccc(Nc3ncc4c(n3)-c3ccc(Cl)cc3C(c3c(F)cccc3F)=NC4)cc2)CC1 [Compound I-341, 4-amino-1-(4-{[9-chloro-7-(2,6-difluorophenyl)-5H-pyrimido[5,4-d][2]benzazepin-2-yl]amino}benzoyl)-N-methylpiperidine-4-carboxamide]
CC1CN(C(=O)c2ccc(Nc3ncc4c(n3)-c3ccc(Cl)cc3C(c3ccc(F)cc3F)=NC4)cc2)CC(C)N1 (stereo not drawn) [Compound I-321, 9-chloro-7-(2,4-difluorophenyl)-N-{4-[(3,5-dimethylpiperazin-1-yl)carbonyl]phenyl}-5H-pyrimido[5,4-d][2]benzazepin-2-amine]
O=C(O)C1CN(C(=O)c2ccc(Nc3ncc4c(n3)-c3ccc(Cl)cc3C(c3c(F)cccc3F)=NC4)cc2)CCN1 (stereo not drawn) [Compound I-266, 4-(4-{[9-chloro-7-(2,6-difluorophenyl)-5H-pyrimido[5,4-d][2]benzazepin-2-yl]amino}benzoyl)piperazine-2-carboxylic acid]
CNC1CCN(C(=O)c2ccc(Nc3ncc4c(n3)-c3ccc(Cl)cc3C(c3ccccc3F)=NC4)cc2)C1 (stereo not drawn) [Compound I-102, {4-[9-Chloro-7-(2-fluoro-phenyl)-5H-benzo[c]pyrimido[4,5-e]azepin-2-ylamino]-phenyl}-(3-methylamino-pyrrolidin-1-yl)-methanone]
COc1ccccc1C1=NCc2cnc(Nc3ccc(C(=O)N4CCNC(C)C4)cc3)nc2-c2ccc(Cl)cc21 (stereo not drawn) [Compound I-329, 9-chloro-7-(2-methoxyphenyl)-N-{4-[(3-methylpiperazin-1-yl)carbonyl]phenyl}-5H-pyrimido[5,4-d][2]benzazepin-2-amine]
Cc1ccccc1C1=NCc2cnc(Nc3ccc(C(=O)O)cc3)nc2-c2ccc(Cl)cc21 [Compound I-54, 4-(9-Chloro-7-o-tolyl-5H-benzo[c]pyrimido[4,5-e]azepin-2-ylamino) -benzoic acid]
CN1CCN(CCCNC(=O)Cc2cccc(Nc3ncc4c(n3)-c3ccc(Cl)cc3C(c3ccccc3F)=NC4)c2)CC1 [Compound I-25, 2-{3-[9-Chloro-7-(2-fluoro-phenyl)-5H-benzo[c]pyrimido[4,5-e]azepin-2-ylamino]-phenyl}-N-[3-(4-methyl-piperazin-1-yl)-propyl]-acetamide]
CCN(CC)CCCN1CCN(C(=O)c2ccc(Nc3ncc4c(n3)-c3ccc(Cl)cc3C(c3ccccc3F)=NC4)cc2)CC1 [Compound I-208, 9-chloro-N-[4-({4-[3-(diethylamino)propyl]piperazin-1-yl}carbonyl)phenyl]-7-(2-fluorophenyl)-5H-pyrimido[5,4-d][2]benzazepin-2-amine]
CNC1CCN(C(=O)c2ccc(Nc3ncc4c(n3)-c3ccc(Cl)cc3C(c3ccccc3C(F)(F)F)=NC4)cc2)C1 (stereo not drawn) [Compound I-290, 9-chloro-N-(4-{[3-(methylamino)pyrrolidin-1-yl]carbonyl}phenyl)-7-[2-(trifluoromethyl)phenyl]-5H-pyrimido[5,4-d][2]benzazepin-2-amine]
CNC(=O)c1ccc(Nc2ncc3c(n2)-c2ccc(Cl)cc2C(c2c(F)cccc2F)=NC3)cc1 [Compound I-334, 4-{[9-chloro-7-(2,6-difluorophenyl)-5H-pyrimido[5,4-d][2]benzazepin-2-yl]amino}-N-methylbenzamide]
CN(C)C1CCN(C(=O)c2cc(Nc3ncc4c(n3)-c3ccc(Cl)cc3C(c3c(F)cccc3F)=NC4)ccc2Cl)CC1 [Compound I-269, 9-chloro-N-(4-chloro-3-{[4-(dimethylamino)piperidin-1-yl]carbonyl}phenyl)-7-(2,6-difluorophenyl)-5H-pyrimido[5,4-d][2]benzazepin-2-amine]
O=C(c1ccc(Nc2ncc3c(n2)-c2ccc(Cl)cc2C(c2ccccc2F)=NC3)cc1)N1CCN(CCN2CCCC2)CC1 [Compound I-171, 9-Chloro-7-(2-fluorophenyl)-N-(4-{[4-(2-pyrrolidin-1-ylethyl)piperazin-1-yl]carbonyl}phenyl)-5H-pyrimido[5,4-d][2]benzazepin-2-amine]
N=C(c1ccc(Nc2ncc3c(n2)-c2ccc(Cl)cc2C(c2c(F)cccc2F)=NC3)cc1)N1CCC(N)C1 (stereo not drawn) [Compound I-284]
CN1CCN(C(=O)Cc2cccc(Nc3ncc4c(n3)-c3ccc(Cl)cc3C(c3ccccc3F)=NC4)c2)CC1 [Compound I-15, 2-{3-[9-Chloro-7-(2-fluoro-phenyl)-5H-benzo[c]pyrimido[4,5-e]azepin-2-ylamino]-phenyl}-1-(4-methyl-piperazin-1-yl)-ethanone]
COc1ccccc1C1=NCc2cnc(Nc3ccc(C(=O)NCCCN4CCN(C)CC4)cc3)nc2-c2ccc(Cl)cc21 [Compound I-22, 4-[9-Chloro-7-(2-methoxy-phenyl)-5H-benzo[c]pyrimido[4,5-e]azepin-2-ylamino]-N-[3-(4-methyl-piperazin-1-yl)-propyl]-benzamide]
COc1cccc(F)c1C1=NCc2cnc(Nc3ccc(C(=O)N4CC(N(C)C)C4)cc3)nc2-c2ccc(Cl)cc21 [Compound I-179, 9-Chloro-N-(4-{[3-(dimethylamino)azetidin-1-yl]carbonyl}phenyl)-7-(2-fluoro-6-methoxyphenyl)-5H-pyrimido[5,4-d][2]benzazepin-2-amine]
Cc1csc(Nc2ncc3c(n2)-c2ccc(C(=O)O)cc2C(c2c(F)cccc2F)=NC3)n1 [Compound I-357, 7-(2,6-difluorophenyl)-2-[(4-methyl-1,3-thiazol-2-yl)amino]-5H-pyrimido[5,4-d][2]benzazepine-9-carboxylic acid]
CNC1CCN(C(=O)c2coc(Nc3ncc4c(n3)-c3ccc(Cl)cc3C(c3c(F)cccc3F)=NC4)n2)C1 (stereo not drawn) [Compound I-375, 9-chloro-7-(2,6-difluorophenyl)-N-(4-{[3-(methylamino)pyrrolidin-1-yl]carbonyl}-1,3-oxazol-2-yl)-5H-pyrimido[5,4-d][2]benzazepin-2-amine]
